Here are results for one compound from PMC8579695, “The Stringent Response Inhibits 70S Ribosome Formation in Staphylococcus aureus by Impeding GTPase-Ribosome Interactions” (mBio, 2021).

The subject of the experiment is HflX binding to 50S ribosomes. Kind of experiment: Stopped-flow fluorescence kinetics of HflX-Atto488 association to 50S subunits. Also noted: species or system Staphylococcus aureus. On the procedure:
FIG 3 Stopped-flow kinetic parameters of RA-GTPase association to the ribosomal subunits. (A) Schematic representation of the experimental setup for stopped-flow analysis. Nucleotides (brown circles), 50S subunits (orange oval), and Atto488-labeled RA-GTPases (purple hexagon) are indicated. Arrows indicate the direction of syringe movement. Atto-488 was excited using a 470-nm LED, and fluorescence was detected through a 515-nm long-pass filter. (B and C) Fluorescent change upon mixing 0.2 μM RbgA-Atto488 (B) or HflX-Atto488 (C) with 0.2 μM 50S ribosomal subunits in the presence of 100 μM GTP, ppGpp, and pppGpp or in the apo state using the stopped-flow fluorescence apparatus. Fluorescently labeled protein was also mixed with buffer lacking 50S subunits as a mixing control. Fluorescence of the reaction was tracked using exponential sampling for 10 s, and each curve represents the mean average of at least five technical replicates. (D) kapp1 dependence on 50S concentration for HflX complexed with GTP (green), ppGpp (pink), and pppGpp (black). (E) Same as for panel D for the kapp2 dependence. (F and G) Sum and product analyses of apparent rates during HflX association to the 50S subunit. HflX-Atto488 (0.05 μM) was mixed with increasing titrations of 50S ribosomal subunits over the fluorescently labeled protein in the presence of 20 μM GTP or ppGpp. The resultant traces (see Fig. S4) were analyzed by nonlinear regression using two exponential terms. The sum (F) and product (G) of apparent rates (kapp1 [D] and kapp2 [E]) were plotted as a function of the total concentration of the 50S subunits and HflX protein to determine the microscopic constants k1, k-1, k2, and k-2 (Table 2) and the resulting dissociation constant (Kd) (see Materials and Methods). Error bars represent the standard deviations of the apparent rates of four or more individual traces (D and E) or the standard errors of the two-step analysis (F and G).
Next, we used a constant concentration of protein in the presence of 200-fold excess of each nucleotide and titrated it with increasing concentrations of ribosomal subunits (see Fig. S4). […]
For initial controls, 0.2 μM Atto-488-labeled proteins were rapidly mixed with 0.2 μM E. coli 50S ribosomal subunits (purified as described elsewhere) in TAKM7 buffer (25 mM Tris-HCl [pH 7.4], 70 mM ammonium acetate, 30 mM KCl, 7 mM MgCl2) using an SX20 stopped-flow apparatus (Applied Photophysics) in the presence or absence of GTP, ppGpp, and pppGpp. […] Atto-488 was excited using a 470-nm LED and fluorescence was detected through a 515-nm long-pass filter. Reactions were monitored for 10 s, with 1,000 total data points per reaction. Each condition was subject to at least five technical repeats, with curves representing the mean average fluorescence of the technical repeats. […]

As to `Nc1nc2c(ncn2[C@@H]2O[C@H](COP(=O)(O)OP(=O)(O)O)[C@@H](OP(=O)(O)OP(=O)(O)O)[C@H]2O)c(=O)[nH]1` [ppGpp], the “reduction of the second, slow-phase reaction of HflX relative to GTP-bound” value stood at 4 fold. Moreover, the “kapp2 of HflX association to 50S” value (GTP: hyperbolic, plateau, ppGpp: independent of 50S concentration) came out at 1.0 s⁻¹.
